The values below come from US4654349A, “Anti-allergic methods using pyrazolo(1,5-A)pyridines” (Kyorin Pharmaceutical Co., Ltd., priority 1983, dated 1987).

One assay relates to SRS-A release. The experiment in a line: Inhibitory effect on SRS-A release (chopped lung fragments of sensitized guinea pigs upon antigen challenge, bioassayed on isolated guinea pig ileum). The assay is classed as cell-based. The following applies: Cavia porcellus; concentration of test compound required to produce a 50% inhibition of SRS-A release; preincubated with lung fragments prior to antigen challenge. As for the experimental part:
The inhibitory effect of the compounds of this invention on SRS-A release was determined according to the method of Orange and Moors [J. Immunol., 116, 392 (1976)]. SRS-A released from chopped lung fragments of sensitized guinea pigs upon antigen challenge was bioassayed on isolate guinea pig ileum according to the method of Brocklehurst [J. Physiol., 151, 416 (1960)]. Test compounds were preincubated with lung fragments prior to antigen challenge.

Another assay addresses T1, 5-Lipoxygenase (Cavia porcellus, UniProt A0A286X958).
T1 construct: using guinea pig peritoneal neutrophils stimulated with calcium ionophore A23187; endogenous in cells; host or cells: guinea pig peritoneal neutrophils
T1 sequence (A0A286X958 1-674): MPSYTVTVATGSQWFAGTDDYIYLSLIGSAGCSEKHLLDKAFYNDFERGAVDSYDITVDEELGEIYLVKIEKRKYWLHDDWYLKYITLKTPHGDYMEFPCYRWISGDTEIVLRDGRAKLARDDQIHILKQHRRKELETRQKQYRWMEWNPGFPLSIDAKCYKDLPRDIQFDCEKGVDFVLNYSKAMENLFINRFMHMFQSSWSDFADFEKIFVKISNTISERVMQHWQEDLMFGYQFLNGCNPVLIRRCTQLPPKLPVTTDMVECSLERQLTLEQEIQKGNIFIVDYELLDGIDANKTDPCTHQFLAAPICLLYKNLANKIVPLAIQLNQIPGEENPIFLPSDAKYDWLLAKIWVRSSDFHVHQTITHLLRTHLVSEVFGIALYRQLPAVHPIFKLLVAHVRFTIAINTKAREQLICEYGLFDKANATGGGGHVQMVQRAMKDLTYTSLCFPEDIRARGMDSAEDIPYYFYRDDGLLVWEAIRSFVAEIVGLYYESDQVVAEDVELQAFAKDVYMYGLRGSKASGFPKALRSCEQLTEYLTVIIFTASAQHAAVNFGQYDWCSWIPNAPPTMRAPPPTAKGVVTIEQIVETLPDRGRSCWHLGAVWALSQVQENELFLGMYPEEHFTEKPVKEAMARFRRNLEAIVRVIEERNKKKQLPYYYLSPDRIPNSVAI
The experiment in a line: Effect on metabolism of exogenous arachidonic acid in A23187-stimulated guinea pig peritoneal neutrophils: 5-lipoxygenase product. The assay is classed as cell-based. The following applies: read-out: Inhibition percent, 5-Lipoxygenase. On the procedure: (§1) The effect of the compounds of this invention on the metabolism of exogenous arachidonic acid-1-^14 C was determined essentially according to the method of Harvey and Osborne [J. Pharmacol. Methods 9, 147 (1983)] using guinea pig peritoneal neutrophils stimulated with calcium ionophore A23187. With this procedure, 5-hydroxyeicosatetraenoic acid (a 5-lipoxygenase product) and 12-hydroxy-5,8,10-heptadecatrienoic acid (a cyclooxygenase product) were produced by neutrophils as major metabolites, allowing simultaneous evaluation of the drug effect on both pathways of arachidonic acid metabolism.

The subject of a further assay is Cyclooxygenase. Description: Effect on metabolism of exogenous arachidonic acid in A23187-stimulated guinea pig peritoneal neutrophils: cyclooxygenase product. The class given is cell-based. On the procedure: as §1
The conditions of assay [1]: must be insufflated as a powder; cited from earlier work.

Molecules are shown by their SMILES.

Consider `CCc1ccc2c(O)cnn2c1` [compound 1, 6-Ethyl-3-hydroxypyrazolo[1,5-a]pyridine], for which the half-inhibitory concentration (IC50) in the assay with SRS-A release came to 0.55 mg/L.

`CC(C)c1nn2ccccc2c1O` [compound 2]: in the assay with SRS-A release, the concentration for half-maximal inhibition (IC50) was 1.4 mg/L.

On to `Cc1cccc2c(O)c(C(C)C)nn12` [compound 3], for which the IC50 in the assay with SRS-A release was 0.63 mg/L.

As to `CCc1ccc2c(O)c(C(C)C)nn2c1` [compound 4, 6-Ethyl-3-hydroxy-2-isopropylpyraxolo[1,5-a]pyridine], the IC50 in the assay on SRS-A release came to 3.5 mg/L.

Consider `CC(C)Cc1nn2ccccc2c1O` [compound 5], for which the IC50 in the assay with SRS-A release turned out to be 1.8 mg/L. At 5-Lipoxygenase, the inhibition at 0.1 µM was found to be 20.3% and the inhibition at 1 µM is 86.6%. The “Inhibition percent, Cyclooxygenase” value in the assay with Cyclooxygenase (0.1 μM) amounted to 0%. For the same compound, in the assay on Cyclooxygenase (1.0 μM), the “Inhibition percent, Cyclooxygenase” value amounted to 0%.

In the case of `Oc1c(-c2ccc(F)cc2)nn2ccccc12` [compound 6, 2-p-Fluorophenyl-3-hydroxypyrazolo[1,5-a]pyridine], the IC50 in the assay with SRS-A release was 2.4 mg/L.

On to `CCC(=O)Oc1cnn2cc(CC)ccc12` [compound 7, 6-Ethyl-3-propionyloxypyrazolo[1,5-a]pridine], for which the IC50 in the assay on SRS-A release was found to be 1 mg/L. At 5-Lipoxygenase, the inhibition at 0.1 µM came out at 62% and the inhibition at 0.3 µM is 84%. The “Inhibition percent, Cyclooxygenase” value in the assay on Cyclooxygenase (0.1 μM) is given as 0%. For the same compound, the “Inhibition percent, Cyclooxygenase” value in the assay with Cyclooxygenase (0.3 μM) was found to be 0%.

On to `Cc1nn2ccccc2c1OC(=O)C(C)C` [compound 8], for which, in the assay with SRS-A release, the IC50 is 1.7 mg/L.

For the compound `CCc1nn2ccccc2c1OC(C)=O` [compound 9], in the assay on SRS-A release, the IC50 amounted to 1 mg/L. At 5-Lipoxygenase, the inhibition at 0.1 µM was found to be 35.1% and the inhibition at 0.3 µM amounted to 61.7%. In the assay on Cyclooxygenase (0.1 μM), the “Inhibition percent, Cyclooxygenase” value stood at 0%. Further, the “Inhibition percent, Cyclooxygenase” value with Cyclooxygenase (0.3 μM) was found to be 0%.

For `CCCc1nn2ccccc2c1OC(C)=O` [compound 10], in the assay with SRS-A release, the IC50 was 1.7 mg/L. Further, at 5-Lipoxygenase, the inhibition at 0.1 µM was determined as 20.6% and the inhibition at 0.3 µM is 80.2%. Besides, in the assay on Cyclooxygenase (0.1 μM), the “Inhibition percent, Cyclooxygenase” value was 0%. Further, the “Inhibition percent, Cyclooxygenase” value in the assay on Cyclooxygenase (0.3 μM) is 0%.

Take `CC(=O)Oc1c(C(C)C)nn2ccccc12` [compound 11]: in the assay on SRS-A release, the IC50 came to 0.7 mg/L.

With `CCC(=O)Oc1c(C(C)C)nn2ccccc12` [compound 12], the IC50 in the assay with SRS-A release was determined as 0.52 mg/L. The inhibition at 0.1 µM at 5-Lipoxygenase amounted to 53.2%. In addition, in the assay on Cyclooxygenase (0.1 μM), the “Inhibition percent, Cyclooxygenase” value turned out to be 0%.

As to `CC(C)C(=O)Oc1c(C(C)C)nn2ccccc12` [compound 13], in the assay on SRS-A release, the IC50 came out at 0.88 mg/L.

As to `Cc1cccc2c(OC(=O)C(C)C)c(C(C)C)nn12` [compound 14], the IC50 with SRS-A release came out at 0.53 mg/L.

Take `CCc1ccc2c(OC(=O)C(C)C)c(C(C)C)nn2c1` [compound 15, 6-Ethyl-3-isobutyryloxy-2-isopropylpyrazolo[1,5-a]pyridine]: in the assay on SRS-A release, the IC50 turned out to be 1.2 mg/L.

Take `CC(C)CC(=O)Oc1c(CC(C)C)nn2ccccc12` [compound 16]: the half-inhibitory concentration (IC50) with SRS-A release was 1.9 mg/L. In addition, the inhibition at 0.1 µM at 5-Lipoxygenase was 16.9%. Further, on 5-Lipoxygenase, the inhibition at 0.3 µM is 82.1%. The “Inhibition percent, Cyclooxygenase” value in the assay on Cyclooxygenase (0.1 μM) and in the assay on Cyclooxygenase (0.3 μM) was 0% in each case.

Regarding `CCOC(=O)Oc1c(C(C)C)nn2cc(CC)ccc12` [compound 17, 3-Ethoxycarbonyloxy-6-ethyl-2-isopropylpyrazolo[1,5-a]pyridine], in the assay on SRS-A release, the IC50 turned out to be 1.5 mg/L.

In the case of `CC(=O)Oc1c(-c2ccc(F)cc2)nn2ccccc12` [compound 20], the IC50 in the assay with SRS-A release stood at 2.4 mg/L. The inhibition at 1 µM on 5-Lipoxygenase amounted to 83.7%. For the same compound, the “Inhibition percent, Cyclooxygenase” value in the assay with Cyclooxygenase (1.0 μM) amounted to 0%.

Take `O=C(O)c1cc(=O)c2c(OCC(O)COc3cccc4oc(C(=O)O)cc(=O)c34)cccc2o1` [disodium cromoglycate]: in assay [1], the “oral activity (in words)” value was “orally inactive”.

As to `O=C1CCN(c2ccccc2)N1` [phenidone, 1phenyl-3-pyrazolidone, reference compound], the 50% inhibitory concentration (IC50) with SRS-A release stood at 6.3 mg/L. On 5-Lipoxygenase, the inhibition at 0.3 µM worked out at 22%. Besides, the inhibition at 1 µM at 5-Lipoxygenase turned out to be 60%. On 5-Lipoxygenase (3.0 μM), the inhibition at 3 µM came out at 89%. In addition, on 5-Lipoxygenase (30.0 μM), the inhibition at 30 µM was 95.5%. Moreover, the “Inhibition percent, Cyclooxygenase” value with Cyclooxygenase (0.3 μM) is listed as 0%; in the assay on Cyclooxygenase (1.0 μM), 0%; with Cyclooxygenase (3.0 μM), 0%; with Cyclooxygenase (30.0 μM), 58.2%.

A word on the IC50: it is the concentration that inhibits the measured activity by half. The term inhibition denotes how much of the control response was suppressed.
